# What was measured:
# Experiment in all cases: relative viability (nuclei count vs DMSO), 5 days (fraction); higher = more cells survive
# [1] = compound: COC1=CC=C(C=C1)CN2C=CC3=C2C=C(C=C3)C(=O)NO + CC(=O)Nc1cccc(-n2c(=O)n(C3CC3)c(=O)c3c(Nc4ccc(I)cc4F)n(C)c(=O)c(C)c32)c1 [Trametinib] (partner 0.02 µM)
# Summary of the method: (§1)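 Medians of duplicate plates are given as relative viability. That measure is the nuclei count in treated wells divided by the count in vehicle wells. Counts were taken on 4× images of lung cancer cell lines in 1536-well plates, 5 days after pin-tool dosing the day after seeding with one drug alone or a fixed anchor-drug dose plus five library-drug doses (not always all listed) in √10 steps.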
# [2] = compound: COC1=CC=C(C=C1)CN2C=CC3=C2C=C(C=C3)C(=O)NO + N=C(N)NC(=N)NCCc1ccccc1 [Phenformin] (partner 250 µM)
# Summary of the method: as §1
# [3] = compound: COC1=CC=C(C=C1)CN2C=CC3=C2C=C(C=C3)C(=O)NO + Nc1ncn([C@H]2C[C@H](O)[C@@H](CO)O2)c(=O)n1 [Decitabine] (partner 2 µM)
# Summary of the method: as §1
# Veliparib + Navitoclax = compound: C[C@]1(c2nc3c(C(N)=O)cccc3[nH]2)CCCN1 [Veliparib] + CC1(C)CCC(c2ccc(Cl)cc2)=C(CN2CCN(c3ccc(C(=O)NS(=O)(=O)c4ccc(N[C@H](CCN5CCOCC5)CSc5ccccc5)c(S(=O)(=O)C(F)(F)F)c4)cc3)CC2)C1 [Navitoclax] (partner 0.5 µM)
# Summary of the method: as §1
Cell Line,relative viability ([1]; first compound 0.08 µM),relative viability ([1]; first compound 0.253 µM),relative viability ([1]; first compound 0.8 µM),relative viability ([1]; first compound 2.53 µM),relative viability ([1]; first compound 8 µM),relative viability ([2]; first compound 0.253 µM),relative viability ([2]; first compound 0.8 µM),relative viability ([2]; first compound 2.53 µM),relative viability ([2]; first compound 8 µM),relative viability ([3]; first compound 0.08 µM),relative viability ([3]; first compound 0.253 µM),relative viability ([3]; first compound 0.8 µM),relative viability ([3]; first compound 2.53 µM),relative viability ([3]; first compound 8 µM),relative viability (Veliparib + Navitoclax; first compound 0.02 µM),relative viability (Veliparib + Navitoclax; first compound 0.06325 µM),relative viability (Veliparib + Navitoclax; first compound 0.2 µM),relative viability (Veliparib + Navitoclax; first compound 0.6325 µM),relative viability (Veliparib + Navitoclax; first compound 2 µM),relative viability ([2]; first compound 0.08 µM)
NCI-H3122,0.276,0.13,0.225,0.217,0.222,0.324,0.393,0.382,0.337,0.467,0.479,0.484,0.468,0.386,0.982,0.998,0.998,1,1.01,
PC-14,0.741,0.687,0.753,0.722,0.734,0.348,0.667,0.639,0.488,0.212,0.259,0.198,0.223,0.244,0.991,1.05,0.937,0.895,0.898,
NCI-H2087,0.163,0.204,0.232,0.181,0.154,0.448,0.442,0.404,0.374,0.25,0.295,0.288,0.319,0.192,0.883,0.821,0.849,0.863,0.952,0.396
NCI-H1650,0.543,0.595,0.645,0.624,0.539,0.447,0.422,0.334,0.204,0.358,0.407,0.423,0.392,0.328,,0.93,1.19,1.08,1.32,0.4
PC-3 [JPC-3],0.641,,0.75,0.702,0.683,0.464,0.475,0.495,0.497,0.764,,0.775,0.833,0.832,0.742,0.77,0.801,0.749,0.734,0.5
LOU-NH91,,0.754,0.778,0.808,0.766,0.678,0.702,0.766,0.637,,0.828,0.831,0.851,0.824,0.539,0.643,0.672,0.689,0.703,0.612
NCI-H838,0.346,0.472,0.561,0.547,0.429,0.589,0.6,0.628,0.456,0.441,0.455,0.476,0.456,0.505,1.2,1.1,1.12,1.11,1.2,
NCI-H23,0.298,0.445,0.397,0.381,0.283,0.843,0.852,0.712,0.653,0.291,0.325,0.377,0.301,0.296,0.884,0.772,0.828,0.81,0.791,0.699
NCI-H2023,0.478,0.594,0.474,0.589,0.48,0.409,0.383,0.392,0.299,0.201,0.234,0.272,0.244,0.173,1.04,0.948,0.922,0.926,0.943,0.38
NCI-H1993,0.526,0.564,0.518,0.514,0.543,0.571,0.445,0.477,0.457,0.602,0.599,0.526,0.675,0.613,0.939,0.898,1.07,0.902,0.959,0.512
UMC-11,0.225,0.708,0.712,0.735,0.666,0.356,0.331,0.286,0.309,,0.369,0.595,0.575,0.509,0.345,0.312,0.369,0.324,0.331,
NCI-H1437,0.452,0.494,0.538,0.66,0.57,0.348,0.36,0.424,0.274,0.558,0.608,0.547,0.576,0.606,1.02,0.997,1.13,1.08,1.05,0.289
LU99A,,0.61,0.553,0.548,0.455,0.826,0.915,0.875,0.685,,0.959,0.952,0.843,0.911,0.761,0.779,0.832,0.657,0.863,
NCI-H1755,0.711,0.77,0.791,0.758,0.753,0.678,0.636,0.637,0.61,0.632,0.737,0.64,0.743,0.683,1.02,0.946,0.939,0.925,0.967,0.595
LXF-289,,0.698,0.712,0.677,0.677,0.554,0.517,0.512,0.508,,0.413,0.391,0.386,0.329,0.932,0.948,0.931,0.888,0.968,
NCI-H460,0.157,0.123,0.153,0.178,0.0809,0.463,0.509,0.473,0.188,0.457,0.461,0.468,0.432,0.43,,1.02,1.06,1.03,1.12,0.519

# — the supplement of paper PMC10307832
